Experiment: xn = mol fraction of the nth substance listed
Conditions: 101 kPa

Cn1cc[nH+]c1.[Cl-] + Cl[Al](Cl)Cl
Conditions | electrical conductivity, x2 = 0.643 [S/m] | electrical conductivity, x2 = 0.667 [S/m] | viscosity, x2 = 0.643 [mPa·s] | viscosity, x2 = 0.667 [mPa·s]
293.15 K | – | – | 78.3 | 50.8
298.15 K | 0.456 | 0.601 | 59.41 | 40.23
303.15 K | 0.553 | – | 46.88 | –
308.15 K | 0.661 | 0.827 | 38.17 | 27.36
313.15 K | – | 0.961 | – | 23.28
318.15 K | 0.909 | 1.1 | 27.17 | 20.13
323.15 K | 1.05 | 1.25 | 23.58 | 17.66
328.15 K | 1.2 | 1.4 | 20.75 | 15.67
333.15 K | 1.36 | 1.56 | 18.5 | 14.06
338.15 K | 1.53 | 1.74 | 16.67 | 12.72
343.15 K | 1.7 | 1.92 | 15.15 | 11.61
